Data: patent publication US12152038B2, “Vasopressin receptor antagonists and products and methods related thereto” (Neumora Therapeutics, Inc., priority 2017, dated 2024)
Where two headings read alike, the source gives them in different places.

Legend:
[1] = biological target: T1, human Arginine Vasopressin Receptor 1a (AVPR1a) (Homo sapiens, UniProt P37288); experiment: Vasopressin V1a receptor antagonist assay (FLIPR calcium, CHO-AVPR1a cells); assay type: cell-based
T1 construct: expressed in transfected cells; host or cells: CHO (CHO-AVPR1a, kept under G418 selection)
Summary of the method: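 CHO cells expressing human AVPR1a were loaded with Calcium-6 dye and preincubated with compound for 15 min at 37° C. Cells were then challenged with AVP at its daily-determined EC80, and FLIPR fluorescence was read. Compounds were tested in duplicate as 10-point 1:3 dilutions from a top final concentration of 3 μM.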

[2] = biological target: T2, human Oxytocin Receptor (hOTR) (Homo sapiens, UniProt P30559); experiment: Oxytocin receptor (OTR) antagonist assay (FLIPR calcium, CHEM-1-hOTR cells); assay type: cell-based
T2 construct: host or cells: CHEM-1 (ready-to-assay frozen cells)
T2 sequence (P30559 1-389): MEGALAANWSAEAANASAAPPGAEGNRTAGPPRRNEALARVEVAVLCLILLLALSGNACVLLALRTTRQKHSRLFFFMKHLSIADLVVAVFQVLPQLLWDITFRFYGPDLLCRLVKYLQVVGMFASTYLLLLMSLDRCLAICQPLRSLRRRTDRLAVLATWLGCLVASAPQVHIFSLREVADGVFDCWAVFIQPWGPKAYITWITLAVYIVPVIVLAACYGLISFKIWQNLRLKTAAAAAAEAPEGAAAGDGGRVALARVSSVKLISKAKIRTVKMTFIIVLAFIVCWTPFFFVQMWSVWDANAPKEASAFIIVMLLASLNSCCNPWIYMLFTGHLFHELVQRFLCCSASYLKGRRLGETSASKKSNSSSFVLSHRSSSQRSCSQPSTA
Protocol: This assay was performed in CHEM-1 cells expressing the human Oxytocin Receptor (hOTR) to determine the inhibitory effect of the compounds of the invention on the human Oxytocin receptor. Oxytocin evokes an increase in intracellular calcium in CHEM-1-hOTR cells which is measured in a fluorescence assay on the FLIPR^TETRA using calcium sensitive dyes. Test compounds were assessed for their ability to affect the magnitude of the response to oxytocin, with antagonists showing a concentration-dependent reduction in the oxytocin-mediated fluorescence.
CHEM-1-hOTR ready was used to assay frozen cells (Eurofins #HTS09ORTA) which are supplied with a proprietary Media Component.
Day 1 of the assay: Cells were thawed in a 37° C. water bath and diluted with the supplied Media Component to a final volume of 10 ml. The cell suspension was centrifuged at 1000 rpm for 3 min at room temperature and the supernatant was discarded. The cell pellet was resuspended in Media Component (10.5 ml) and the cells (25 μL) were dispensed into a poly-D-lysine coated black, clear bottomed, 384-well plate. The plates were incubated overnight at 37° C., 5% CO2.
Day 2: At the start of each assay day the potency of oxytocin was assessed and an EC80 concentration was determined for subsequent compound profiling. Assays were performed using a two-step addition protocol on the FLIPR^TETRA; first addition of 5 μl of control or test compound at 10× final in assay buffer with 15 min incubation at 37° C., 5% CO2 followed by 10 μl of oxytocin at 6× final concentration in assay buffer. Changes in fluorescence were monitored for 3 min after both additions on the FLIPR^TETRA using 470-495 nm excitation and 515-575 nm emission wavelengths. The assay buffer consisted of HBSS (+Ca/+Mg) supplemented with 20 mM HEPES, and for the preparation of the oxytocin agonist only, 0.1% w/v bovine serum albumin. The assay was initiated by the removal of growth media from the cells and replaced with 45 μl of Calcium-6 dye (Molecular Devices) prepared at 1× in assay buffer. Cells were loaded with dye for 60-90 min at 37° C., 5% CO2 before initiation of the FLIPR^TETRA protocol. […] For compound profiling, test compounds were first serially diluted in DMSO (10-point curve, 1:3 dilutions) then diluted 33.3-fold in assay buffer prior to addition to the dye loaded cells on the FLIPR^TETRA. At the end of the incubation period 10 μl of oxytocin in assay buffer containing 0.1% BSA was added at the previously determined EC80 concentration.
In-plate controls for the assay included a L-368,899 concentration-response curve as the reference OTR antagonist and an oxytocin concentration-response curve to confirm the reproducibility of the EC80 used for the compound challenge.

MDR1 (P-glycoprotein) = biological target: T3, MDR1 (P-glycoprotein) (Homo sapiens, UniProt P08183); experiment: MDR1-MDCK permeability and efflux assay (Papp, efflux ratio, effective efflux ratio); assay type: in vitro ADME; conditions: dog; for Papp A→B at 1 h, 10 μM: pH 7.4, read-out: Papp AB MDR1
T3 construct: host or cells: MDCK (MDR1-MDCK; wild-type MDCK as comparator)
Protocol: (§1) The MDR1-MDCK effective efflux assay was performed as described in the BioFocus Standard Operating Procedure, ADME-SOP-56. Both wild-type (WT) and MDR1-MDCK cells (Solvo Biotechnology) were seeded onto 24-well Transwell plates at 2.35×10^5 cells per well and used in confluent monolayers after a 3 day culture at 37° C. under 5% CO2. For both cell types, test and control compounds (propranolol, vinblastine) were added (10 μM, 0.1% DMSO final, n=2) to donor compartments of the Transwell plate assembly in assay buffer (Hanks balanced salt solution supplemented with 25 mM HEPES, adjusted to pH 7.4) for both apical to basolateral (A>B) and basolateral to apical (B>A) measurements. Incubations were performed at 37° C., with samples removed from both donor and acceptor chambers at T=0 and 1 hour and compound analysed by mass spectrometry (LC-MS/MS) including an analytical internal standard.
(§2) Apparent permeability (Papp) values were determined from the relationship: Papp=[CompoundAcceptor T=end]×V Acceptor/([Compound Donor T=0]×V Donor)/incubation time×V Donor/Area×60×10^−6 cm/s
(§3) In this equation, V is the volume of each Transwell compartment (apical 125 μL, basolateral 600 μL), and concentrations are the relative MS responses for compound (normalized to internal standard) in the donor chamber before incubation and acceptor chamber at the end of the incubation, and Area is the area of cells exposed for drug transfer (0.33 cm^2).
(§4) Efflux ratios (Papp B>A/Papp A>B) were calculated for each compound from the mean Papp values in each direction for both wild-type and MDR1-MDCK cells.
(§5) In order to confirm the involvement of MDR1 in any efflux seen, an “effective efflux ratio” (EER) was calculated by comparing compound efflux ratios (ER) in the two cell types by the following equation: EER=ER(MDR1-MDCK)/ER(wild-type MDCK)
(§6) This ratio illustrates the effect of the over-expressed MDR1 normalised for the background movement of compound through the wild-type cells.
(§7) Lucifer Yellow (LY) was added to the apical buffer in all wells to assess viability of the cell layer. […] Recoveries<50% indicates compound solubility, stability or binding issues, thereby reducing the reliability of a result.
(§8) The inherent ability of a potential drug molecule to penetrate the blood brain barrier and avoid efflux by transporters expressed in the brain, can be roughly correlated with the Papp(A-B) and the efflux ratio (as defined above), respectively. A potential drug molecule with an apparent permeability<7 (10^−6 cm/sec) has low permeability (+), >7 (10^−6 cm/sec) but <10 (10^−6 cm/sec) has moderate permeability (++), >10 (10^−6 cm/sec) but <20 (10^−6 cm/sec) has good permeability (+++), and >20 (10^−6 cm/sec) is highly permeable (++++). High permeability in the WT and MDCK II cell permeability assay increases the probability of blood brain barrier penetration and access to the CNS. A potential drug molecule in the above assay system with an efflux ratio or effective efflux ratio of <1 has low probability of being an efflux substrate (++++), >1 but <2 has moderate probability of being an efflux substrate (+++), >2 but <3 has has an increased probability of being an efflux substrate (++), and >3 has a high probability of being an efflux substrate (+). If a potential drug molecule is an efflux substrate, the molecule will have a low probability of reaching exposures in the brain (site of action) that will result in efficacious levels of receptor occupancy.

[3] = Wild-type MDCK permeability and efflux assay (Papp, efflux ratio); assay type: in vitro ADME; conditions: dog, pH 7.4, wild-type MDCK cells; for efflux ratio at 1 h, 10 μM: Papp B>A/Papp A>B, read-out: ER WT (Efflux Ratio)
Protocol: as §1, §2, §3, §4, §5, §6, §7, §8

V1a receptors = biological target: T4, V1a receptors (Rattus norvegicus, UniProt P30560); experiment: AVP induced phospho-ERK measurement in rat choroid plexus (RCP) cells; assay type: cell-based; conditions: RCP cells stimulated with AVP, pERK1/2 to total ERK1/2 ratio
T4 construct: Rat choroid plexus (RCP) cell lines express functional V1a receptors; endogenous in cells; host or cells: rat choroid plexus (RCP) cell line, RCP P9(18)
Protocol: Rat choroid plexus (RCP) cell lines express functional V1a receptors measured by increased calcium concentrations in response to V1a receptor agonists (Battle et al., Biochem. Biophys. Res. Comm. 2000).
RCP P9(18) cells were seeded 30K/well, in 100 μl growth medium containing 10% FBS in polystyrene 96-well plates and incubated at 37° C., 5% CO2 and incubated overnight. The following day, the growth medium was replaced with 50 μl pre-warmed HBSS containing 20 mM HEPES and the cells were incubated at 37° C., 5% CO2 for 1.5 hrs. 1 mM AVP (Sigma V9879) was freshly prepared in distilled water in a glass vial and diluted to 3× concentrations in HBSS containing 20 mM HEPES and 0.1% BSA in glass vials and kept on ice. […] Final concentrations of AVP: 10, 100 or 1000 nM. […] Cells were lysed with 25 μl 4×CST lysis buffer containing protease and phosphatase inhibitors, PMSF and SDS and then stored at −80° C., for 48 h. The lysates were thawed, centrifuged at 2000 g for 30 min at 4° C. and 40 μl supernatants assayed for pERK1/2 (Thr202/Tyr204; Thr185/Tyr187) and total ERK1/2 using MSD kit K15107D. The MSD ECL data for the lysates were corrected for no cell blanks, then phospho-protein levels expressed as a ratio to the total ERK1/2 level. The ratios were expressed as fold-change from the vehicle-treated control at each timepoint.

Male CD-1 mice = experiment: AVP induced scratching, digging and grooming behavior in mouse; assay type: in vivo; conditions: 100 mg/kg, po; AVP i.c.v.; 15 minutes observation
From the text: Administration of Arginine-Vasopressin (AVP) intracerebroventricularly (i.c.v.) elicits characteristic scratching, digging and grooming behavior in mice that can be measured readily and is sensitive to blockade with vasopressin antagonists (Meisenberg, Ann N Y Acad Sci. 525:257-69, 1988; Bleickardt et. al., Psychopharmacology (Berl). 202(4):711-8, 2009).
Male CD-1 mice (Charles River Germany) weighing 22-25 g upon the study in-life were used for this study. Animals were housed in groups of 4-5 per cage in standard temperature (22±1° C.) and light-controlled environment (lights on from 7 am to 8 pm), with ad libitum access to food and water. Prior to commencing any procedures to the mice, they were allowed to habituate in the vivarium for a minimum of 7 days. Anesthesia was induced in a plexiglass chamber for 2-3 min with 5% isoflurane and maintained through a snout mask with 1-2% isoflurane thereafter. A homeothermic blanket system with a rectal probe was used to monitor and maintain the animal's body temperature at 37.0° C.±1.5° C. during the operation. Anesthetized mice were placed in a stereotaxic apparatus and skin between the ears shaved and disinfected with povidone-iodine solution (Betadine). A 10-μl Hamilton syringe with 28-gauge needle was used for the i.c.v. injections. All animals receive identical AVP injections (3.689 μM) or sterile saline (0.9% sodium chloride solution) into the right lateral ventricle at the following coordinates: AP=+0.5 mm; ML=+1.0 mm; DV=−2.5 mm (approximately from bregma). The actual coordinates were calculated by the distance from the point in midline between the eyes and no skin incision was made. […]
Mice were observed and video-recorded for 15 minutes following AVP/saline administration and behaviors were measured (in seconds) and a cumulative time was calculated. […] Using this assay, balovaptan (100 and 300 mg/kg, po), JNJ-17308616 (30, 100 mg/kg, po) and Compound No. 1-83B (100, 300, 500 mg/kg, po) were evaluated for antagonist activity to AVP-induced scratching behaviors.

[4] = MDCK-MDR1, pH 7.4, ER(MDR1-MDCK)/ER(wild-type MDCK), read-out: EER (Effective Efflux Ratio)
[5] = MDCK-MDR1, pH 7.4, Papp B>A/Papp A>B, MDR1-MDCK cells, read-out: ER MDR1 (Efflux Ratio)

T1 sequence (P37288 whole entry): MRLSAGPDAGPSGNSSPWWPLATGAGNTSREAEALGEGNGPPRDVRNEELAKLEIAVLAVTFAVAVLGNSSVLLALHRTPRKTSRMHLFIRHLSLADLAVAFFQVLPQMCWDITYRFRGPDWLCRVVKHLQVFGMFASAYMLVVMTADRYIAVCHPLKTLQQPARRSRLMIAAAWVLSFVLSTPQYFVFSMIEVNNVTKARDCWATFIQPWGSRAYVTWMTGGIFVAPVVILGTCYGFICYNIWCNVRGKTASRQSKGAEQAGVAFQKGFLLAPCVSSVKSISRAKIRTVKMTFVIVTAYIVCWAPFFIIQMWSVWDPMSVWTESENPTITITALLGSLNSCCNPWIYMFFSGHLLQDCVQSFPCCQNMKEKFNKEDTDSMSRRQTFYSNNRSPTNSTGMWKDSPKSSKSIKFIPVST
T3 sequence (P08183 whole entry): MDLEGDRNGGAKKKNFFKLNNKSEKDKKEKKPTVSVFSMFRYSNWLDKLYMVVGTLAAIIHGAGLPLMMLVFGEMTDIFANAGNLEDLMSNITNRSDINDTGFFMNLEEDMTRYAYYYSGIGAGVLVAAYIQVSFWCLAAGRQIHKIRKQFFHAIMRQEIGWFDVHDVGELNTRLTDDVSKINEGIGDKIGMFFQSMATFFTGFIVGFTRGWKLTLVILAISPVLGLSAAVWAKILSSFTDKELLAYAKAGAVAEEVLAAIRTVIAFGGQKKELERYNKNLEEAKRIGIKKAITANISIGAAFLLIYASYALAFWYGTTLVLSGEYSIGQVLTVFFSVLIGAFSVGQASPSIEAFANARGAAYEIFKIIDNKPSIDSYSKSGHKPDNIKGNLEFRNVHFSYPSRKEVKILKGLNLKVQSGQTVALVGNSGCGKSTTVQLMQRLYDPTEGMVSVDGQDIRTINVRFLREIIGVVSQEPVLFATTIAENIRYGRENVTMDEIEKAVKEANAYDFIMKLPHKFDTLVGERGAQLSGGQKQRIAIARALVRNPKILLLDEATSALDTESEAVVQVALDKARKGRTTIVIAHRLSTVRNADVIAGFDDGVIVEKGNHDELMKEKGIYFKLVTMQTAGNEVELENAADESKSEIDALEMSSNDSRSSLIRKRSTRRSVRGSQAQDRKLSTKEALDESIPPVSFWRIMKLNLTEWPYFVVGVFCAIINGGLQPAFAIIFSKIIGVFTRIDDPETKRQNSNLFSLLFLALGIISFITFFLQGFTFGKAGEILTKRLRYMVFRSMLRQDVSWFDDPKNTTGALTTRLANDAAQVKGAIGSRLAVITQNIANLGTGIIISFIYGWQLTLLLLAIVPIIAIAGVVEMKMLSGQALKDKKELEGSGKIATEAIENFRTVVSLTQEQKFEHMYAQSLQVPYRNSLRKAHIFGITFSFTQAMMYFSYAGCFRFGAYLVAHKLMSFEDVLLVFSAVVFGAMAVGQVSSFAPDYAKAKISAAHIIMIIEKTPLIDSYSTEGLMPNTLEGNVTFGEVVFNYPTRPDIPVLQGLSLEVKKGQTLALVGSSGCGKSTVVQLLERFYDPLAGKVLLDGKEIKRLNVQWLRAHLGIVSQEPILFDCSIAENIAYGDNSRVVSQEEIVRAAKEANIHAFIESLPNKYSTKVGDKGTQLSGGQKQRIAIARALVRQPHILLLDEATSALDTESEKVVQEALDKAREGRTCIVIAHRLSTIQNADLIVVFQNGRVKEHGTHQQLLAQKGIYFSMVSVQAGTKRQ
T4 sequence (P30560 whole entry): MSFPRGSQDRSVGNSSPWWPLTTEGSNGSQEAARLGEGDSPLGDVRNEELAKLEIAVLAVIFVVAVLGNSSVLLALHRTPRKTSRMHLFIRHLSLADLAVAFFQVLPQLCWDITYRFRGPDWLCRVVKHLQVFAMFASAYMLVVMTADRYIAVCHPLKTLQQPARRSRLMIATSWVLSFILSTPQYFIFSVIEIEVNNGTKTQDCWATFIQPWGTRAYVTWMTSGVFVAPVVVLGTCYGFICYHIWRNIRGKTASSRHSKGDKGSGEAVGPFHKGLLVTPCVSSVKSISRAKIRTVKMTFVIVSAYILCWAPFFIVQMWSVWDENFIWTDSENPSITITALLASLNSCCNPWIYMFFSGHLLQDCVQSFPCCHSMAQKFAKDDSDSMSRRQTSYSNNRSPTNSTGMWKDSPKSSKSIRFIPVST

Row | Structure (SMILES) | IC50 [1] [nM] | IC50 [2] [nM] | efflux ratio at 1 h, 10 μM (MDR1 (P-glycoprotein); [4]) | efflux ratio at 1 h, 10 μM (MDR1 (P-glycoprotein); [5]) | Papp A→B at 1 h, 10 μM (MDR1 (P-glycoprotein); MDR1-MDCK cells) [×10⁻⁶ cm/s] | Papp A→B at 1 h, 10 μM [3] [×10⁻⁶ cm/s] | efflux ratio at 1 h, 10 μM [3] | IC50 (V1a receptors; first study) [nM] | IC50 (V1a receptors; second study) [nM] | antagonist activity to AVP-induced scratching behaviors (Male CD-1 mice)
1 | CC1COc2cc(Cl)ccc2N1C(=O)N1CC2(C1)CN(c1ncccc1F)C2 (single isomer, unassigned) [1-57-B] | ≥ 1000 | < 100 |  |  |  |  |  |  |  | 
2 | Cc1nc(N2CC3(CN(C(=O)N4c5ccc(Cl)cc5OCC4C)C3)C2)ncc1F (single isomer, unassigned) [20-7-A] | ≥ 1000 |  | < 1 | < 1 | > 20 | > 20 | < 1 |  |  | 
3 | CC1COc2cc(F)ccc2N1C(=O)N1CC2(C1)CN(c1cc(C#N)ccn1)C2 (stereo not shown) [20-3] | < 100 |  | < 1 | 1 to 2 | > 20 | > 20 | 1 to 2 |  |  | 

The next lines start with results.

Row | IC50 [1] [nM] | IC50 [2] [nM] | efflux ratio at 1 h, 10 μM (MDR1 (P-glycoprotein); [4]) | efflux ratio at 1 h, 10 μM (MDR1 (P-glycoprotein); [5]) | Papp A→B at 1 h, 10 μM (MDR1 (P-glycoprotein); MDR1-MDCK cells) [×10⁻⁶ cm/s] | Papp A→B at 1 h, 10 μM [3] [×10⁻⁶ cm/s] | efflux ratio at 1 h, 10 μM [3] | IC50 (V1a receptors; first study) [nM] | IC50 (V1a receptors; second study) [nM] | Structure (SMILES) | antagonist activity to AVP-induced scratching behaviors (Male CD-1 mice)
4 | ≥ 1000 |  | 1 to 2 | < 1 | > 20 | > 20 | < 1 |  |  | CC1COc2cc(Cl)ccc2N1C(=O)N1CC2(C1)CN(c1cc(C#N)ccn1)C2 (single isomer, unassigned) [20-6-A] | 
5 | ≥ 1000 | ≥ 1000 |  |  |  |  |  |  |  | Cc1cnc(N2CC3(CN(C(=O)N4c5ccc(Cl)cc5OCC4C)C3)C2)nc1 (single isomer, unassigned) [20-13-A] | 
6 |  |  |  |  |  |  |  | 10.9 | 13.6 | CN1Cc2cc(Cl)ccc2-n2c(nnc2[C@H]2CC[C@H](Oc3ccccn3)CC2)C1 [balovaptan, reference compound] | effective
